The values that follow come from patent publication US20230287066A1, “MATERIALS AND METHODS FOR MAKING SEXUAL STAGE […]” (The Penn State Research Foundation, priority 2020, published 2023).

Experiment [1] has as its system P. falciparum expressing a regulatable AP2-G polypeptide and having a reduced level of histone modification at the 3′ pairing element of the pfap2-g locus. Briefly: Gametocytogenesis (percentage sexual conversion) of engineered parasites treated with Shld1. The format is cell-based, Plasmodium falciparum. Particulars: in the presence of a Shld1 molecule; 3′ pairing element mutant AP2-G-HA-FKBP parasites. The procedure: The number of gametocytes was determined by splitting the culture in two and treating half with Shld1 and half with the same volume of the vehicle (Day 1). The parental cell line (AP2-G-HA-FKBP) and the pairing element mutant were tested in parallel. After 48 hours (on Day 3), the number of parasites present was counted by microscopy and N-acetylglucosamine was added to all cultures to specifically kill asexual parasites. On Day 9, when gametocytes developed enough that they were readily distinguished from asexual stage parasites by morphology, the number of gametocytes were counted by microscopy. Percentage sexual conversion was calculated by dividing this by the proportion of parasite-infected red blood cells on Day 3.

Experiment [2] has as its system AP2-G-HA-FKBP polypeptide. The experiment is described as follows: Conditional knockdown of PfAP2-G fused to FKBP destabilization domain. The experiment is classed as cell-based, Plasmodium falciparum. The note with it: in the presence of Shld1; AP2-G-HA-FKBP parasites (FIG. 1). The source says: A regulatable knockdown of PfAP2-G was generated by engineering a transgenic line with AP2-G fused to an FKBP destabilization domain (DD) as described elsewhere (see, e.g., Kafsack et al., Nature, 507(7491):248-52 (2014)). Briefly, a construct encoding an AP2-G polypeptide fused to an HA-tag and an FKBP DD (e.g., an AP2-G-HA-FKBP polypeptide) was stably integrated into the genome of Plasmodium falciparum lines.
In the absence of the ligand Shield-1 (Shld1), the FKBP destabilization domain was unstable and targets fusion proteins for proteolytic degradation.

SMILES strings stand for the structures.

For `CC[C@H](C(=O)N1CCCC[C@H]1C(=O)O[C@H](CCc1ccc(OC)c(OC)c1)c1cccc(OCCN2CCOCC2)c1)c1cc(OC)c(OC)c(OC)c1` [Shld1], the “P. falciparum that commit to gametocytogenesis and form sexual stage parasites” value in experiment [1] is listed as “over 60%”. Moreover, in experiment [2], the “stabilization of FKBP destabilization domain / gametocyte production” value was “gametocytes were produced”.
